Values of other authors as cited in US8993551B2, “Composition for the regulation of the human immune system and the prevention and treatment of diseases thereof” (priority 2002, dated 2015).
Read-outs that look alike come from different tables or passages of the source.

Key:
[1] = of total dietary amount consumed / of intake, mammals
[2] = test system: human breast cancer cells
[3] = test system: LNCaP human prostate cancer cells
[4] = test system: HT-29 human colon cancer cells
CD4 lymphocyte count = settings: AIDS patients

| Structure (SMILES) | intestinal absorption [1] | inhibition of breast cancer cell growth ([2]; after 3 days) [%] | inhibition of breast cancer cell growth ([2]; after 5 days) [%] | increase in rate of cell death ([2]; breast cancer cells) [%] | inhibition of prostate cancer cell growth [3] [%] | increase in cell death ([3]; prostate cancer cells) [%] | reduction in cell growth [4] [%] | CD4 lymphocyte count (CD4 lymphocyte count) |
| --- | --- | --- | --- | --- | --- | --- | --- | --- |
| CC(C)CCC[C@@H](C)[C@H]1CC[C@H]2[C@@H]3CC=C4C[C@@H](O)CC[C@]4(C)[C@H]3CC[C@]12C [cholesterol] | 45-54% |  |  |  |  |  |  |  |
| CC[C@H](CC[C@@H](C)[C@H]1CC[C@H]2[C@@H]3CC=C4C[C@@H](O)CC[C@]4(C)[C@H]3CC[C@]12C)C(C)C [beta-sitosterol] | ~5% | 66 | 80 | 600 | 24 | 400 | 55 | maintain CD4 lymphocyte count |
